Test results from PMC5503546, “Synthesis, bioactivity, 3D-QSAR studies of novel dibenzofuran derivatives as PTP-MEG2 inhibitors” (Oncotarget, 2017).

Assays:
[1] = target: T1, Human recombinant PTP-MEG2 (Homo sapiens, UniProt P43378); assay: PTP activity assay (pNPP), PTP-MEG2; assay type: biochemical; details: triplicate, mean ± S.E.M.
T1 construct: made in house; host or cells: E. coli
T1 sequence (P43378 1-593): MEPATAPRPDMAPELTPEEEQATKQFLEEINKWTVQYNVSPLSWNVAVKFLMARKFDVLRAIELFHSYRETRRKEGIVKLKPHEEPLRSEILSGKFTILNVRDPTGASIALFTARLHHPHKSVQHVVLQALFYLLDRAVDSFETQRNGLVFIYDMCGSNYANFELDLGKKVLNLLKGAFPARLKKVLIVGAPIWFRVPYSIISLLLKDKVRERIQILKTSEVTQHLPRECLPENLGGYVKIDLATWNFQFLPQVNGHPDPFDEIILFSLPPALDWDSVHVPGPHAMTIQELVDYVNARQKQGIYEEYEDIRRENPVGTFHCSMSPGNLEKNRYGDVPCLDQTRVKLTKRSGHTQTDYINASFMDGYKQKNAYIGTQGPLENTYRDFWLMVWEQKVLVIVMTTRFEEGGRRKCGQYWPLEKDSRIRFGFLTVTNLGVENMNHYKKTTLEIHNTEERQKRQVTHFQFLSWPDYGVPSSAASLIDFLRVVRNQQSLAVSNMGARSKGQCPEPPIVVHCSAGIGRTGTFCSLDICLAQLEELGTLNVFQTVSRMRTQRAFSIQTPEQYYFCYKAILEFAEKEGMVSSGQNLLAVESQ
From the text: (§1) Human recombinant PTP-MEG2, SHP2 and CDC25 were expressed in E. coli and purified by Ni-NTA affinity chromatography in our laboratory. The basic chemical reaction catalyzed by a phosphatase converts a phosphosubstrate into a dephosphorylated product and free phosphate which could be measured as a surrogate for phosphatase activity. pNPP(para-nitrophenyl phosphate) was used as phosphatase substrate which can be hydrolyzed by phosphatase to give para-nitrophenol. Subsequently, para-nitrophenol converts into para-nitrophenolate (pNP) with addition of sodium hydroxide stop solution. pNP is an intense yellow compound and could be measured at 405 nm using a spectrophotometer. To begin with, purified recombinant PTP-MEG2, SHP2 and CDC25 (0.05 μg) in 50 μL buffer with 50 mM citrate (pH 6.0), 0.1 M NaCl, 1 mM EDTA, and 1 mM dithiothreitol (DTT) and test compounds were added to each well of a 96-well plate. Blank was prepared by omitting enzyme and substituting an equivalent volume of buffer. After preincubation for 15 min at room temperature, 50 μL of reaction buffer with 2 mM pNPP was added and incubated at 37°C for 30 min. Then, the reaction was stopped by adding 10 μL 0.2 M sodium hydroxide and chilled on ice quickly. In addition, the amount of pNP was measured by detecting the absorption at 405 nm against blank. Finally, IC50 values were determined by analyzing the data using ORIGINPRO 8 software.

Human recombinant SHP2 = target: T2, Human recombinant SHP2 (Homo sapiens, UniProt Q06124); assay: PTP activity assay (pNPP), SHP2; assay type: biochemical; details: triplicate; read-out: SHP-2 IC50
T2 construct: made in house; host or cells: E. coli
T2 sequence (Q06124 1-593): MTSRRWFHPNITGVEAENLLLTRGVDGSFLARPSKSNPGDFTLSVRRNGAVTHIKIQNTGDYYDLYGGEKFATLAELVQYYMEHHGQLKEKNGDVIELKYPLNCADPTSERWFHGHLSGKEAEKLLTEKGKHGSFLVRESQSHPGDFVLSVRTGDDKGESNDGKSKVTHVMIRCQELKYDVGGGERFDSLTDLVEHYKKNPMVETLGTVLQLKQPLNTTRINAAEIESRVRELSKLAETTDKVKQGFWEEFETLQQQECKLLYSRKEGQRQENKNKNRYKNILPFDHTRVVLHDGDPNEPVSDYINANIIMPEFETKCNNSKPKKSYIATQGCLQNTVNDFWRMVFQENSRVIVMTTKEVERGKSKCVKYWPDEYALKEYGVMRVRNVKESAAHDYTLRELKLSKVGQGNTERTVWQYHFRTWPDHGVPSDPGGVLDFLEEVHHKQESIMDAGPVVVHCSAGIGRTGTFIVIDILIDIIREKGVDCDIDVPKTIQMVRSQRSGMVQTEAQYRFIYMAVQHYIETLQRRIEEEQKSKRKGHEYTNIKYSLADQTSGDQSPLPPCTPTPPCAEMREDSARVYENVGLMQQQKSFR
From the text: as §1

Human recombinant CDC25 = assay: PTP activity assay (pNPP), CDC25; assay type: biochemical; details: triplicate
From the text: as §1

diet-induced obese mice = details: ref [20]; cited from earlier work

IC50 [1] [nM] | IC50 (Human recombinant SHP2) [µM] | IC50 (Human recombinant CDC25) [µM] | Compound | effect on insulin signaling, insulin sensitivity and glucose homeostasis (diet-induced obese mice)
2410 ± 170 | > 50 | > 50 | CCCCCCOc1cc(C(=O)OCC2CC2)cc2oc3cc(F)c(C(C)C)cc3c12 [Compound 11a, cyclopropylmethyl7-fluoro-1-(hexyloxy)-8-isopropyldibenzo[b, d]furan-3-carboxylate] | –
1060 ± 100 | > 50 | > 50 | COc1ccc(COc2cc(C(=O)OCC3CC3)cc3oc4cc(F)c(C(C)C)cc4c23)cc1 [Compound 11b, cyclopropylmethyl7-fluoro-8-isopropyl-1-((4-methoxybenzyl)oxy)dibenzo[b, d]furan-3-carboxylate] | –
5350 ± 430 | > 50 | > 50 | CC(C)c1cc2c(cc1F)oc1cc(C(=O)O)cc(OCC3CC3)c12 [Compound 11e, 1-(cyclopropylmethoxy)-7-fluoro-8-isopropyldibenzo[b, d]furan-3-carboxylic acid] | –

More lines, now with the values behind:

Compound | IC50 [1] [nM] | IC50 (Human recombinant SHP2) [µM] | IC50 (Human recombinant CDC25) [µM] | effect on insulin signaling, insulin sensitivity and glucose homeostasis (diet-induced obese mice)
CCOC(=O)c1cc(OC(C)=O)c2c(c1)oc1cc(F)c(C(C)C)cc12 [Compound 8, ethyl 1-acetoxy-7-fluoro-8-isopropyldibenzo[b, d]furan-3-carboxylate] | 3700 ± 220 | > 50 | > 50 | –
COC(=O)c1cc(O)c2c(c1)oc1cc(F)c(C(C)C)cc12 [Compound 9a, methyl 7-fluoro-1-hydroxy-8-isopropyldibenzo[b, d]furan-3-carboxylate] | 5000 ± 400 | > 50 | > 50 | –
CCOC(=O)c1cc(OCC2CC2)c2c(c1)oc1cc(F)c(C(C)C)cc12 [Compound 10a, ethyl 1-(cyclopropylmethoxy)-7-fluoro-8-isopropyldibenzo[b, d]furan-3-carboxylate] | 320 ± 20 | > 50 | > 50 | –
CCCCCCOc1cc(C(=O)OCC)cc2oc3cc(F)c(C(C)C)cc3c12 [Compound 10b, ethyl 7-fluoro-1-(hexyloxy)-8-isopropyldibenzo[b, d]furan-3-carboxylate] | 1220 ± 110 | > 50 | > 50 | –
CCOC(=O)c1cc(OCC2CCCCC2)c2c(c1)oc1cc(F)c(C(C)C)cc12 [Compound 10c, ethyl 1-(cyclohexylmethoxy)-7-fluoro-8-isopropyldibenzo[b, d]furan-3-carboxylate] | 1190 ± 80 | > 50 | > 50 | –
CCOC(=O)c1cc(OCc2ccc(OC)cc2)c2c(c1)oc1cc(F)c(C(C)C)cc12 [Compound 10d, ethyl7-fluoro-8-isopropyl-1-((4-methoxybenzyl)oxy)dibenzo[b, d]furan-3-carboxylate] | 3390 ± 340 | > 50 | > 50 | –
CCCCCCOc1cc(C(=O)OCC2CCCCC2)cc2oc3cc(F)c(C(C)C)cc3c12 [Compound 11c, cyclohexylmethyl7-fluoro-1-(hexyloxy)-8-isopropyldibenzo[b, d]furan-3-carboxylate] | 3160 ± 320 | > 50 | > 50 | –
COc1ccc(COc2cc(C(=O)OCC3CCCCC3)cc3oc4cc(F)c(C(C)C)cc4c23)cc1 [Compound 11d, cyclohexylmethyl7-fluoro-8-isopropyl-1-((4-methoxybenzyl)oxy)dibenzo[b, d]furan-3-carboxylate] | 830 ± 40 | > 50 | > 50 | –
CCOC(=O)/C(=C/C#Cc1cc(C(C)C)c(F)cc1OC)CC(=O)O [compound7] | – | – | – | augment insulin signaling and enhance the insulin sensitivity and glucose homeostasis
